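48-hour exposure; five concentrations; linearly interpolated endpoints. GI50 is the concentration that inhibits growth by half. TGI is the concentration that stops growth completely.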
How the values were obtained:
Test in all cases: growth of human tumour cells (NCI), 48 h
786-0 renal = test system: 786-0 renal
A498 renal = test system: A498 renal
ACHN renal = test system: ACHN renal
BT-549 breast = test system: BT-549 breast
CAKI-1 renal = test system: CAKI-1 renal
CCRF-CEM leukemia = test system: CCRF-CEM leukemia
COLO 205 colon = test system: COLO 205 colon
DU-145 prostate = test system: DU-145 prostate
EKVX NSCLC = test system: EKVX NSCLC
HCC-2998 colon = test system: HCC-2998 colon
HCT-116 colon = test system: HCT-116 colon
HCT-15 colon = test system: HCT-15 colon
HL-60(TB) leukemia = test system: HL-60(TB) leukemia
HOP-62 NSCLC = test system: HOP-62 NSCLC
HOP-92 NSCLC = test system: HOP-92 NSCLC
HS 578T breast = test system: HS 578T breast
HT29 colon = test system: HT29 colon
IGROV1 ovarian = test system: IGROV1 ovarian
KM12 colon = test system: KM12 colon
LOX IMVI melanoma = test system: LOX IMVI melanoma
M14 melanoma = test system: M14 melanoma
MALME-3M melanoma = test system: MALME-3M melanoma
MCF7 breast = test system: MCF7 breast
MDA-MB-231 breast = test system: MDA-MB-231 breast
MDA-MB-435 = test system: MDA-MB-435
MOLT-4 leukemia = test system: MOLT-4 leukemia
NCI-H226 lung = test system: NCI-H226 lung
NCI-H23 lung = test system: NCI-H23 lung
NCI-H460 lung = test system: NCI-H460 lung
NCI-H522 lung = test system: NCI-H522 lung
NCI/ADR-RES ovarian = test system: NCI/ADR-RES ovarian
OVCAR-3 ovarian = test system: OVCAR-3 ovarian
OVCAR-4 ovarian = test system: OVCAR-4 ovarian
OVCAR-5 ovarian = test system: OVCAR-5 ovarian
OVCAR-8 ovarian = test system: OVCAR-8 ovarian
PC-3 prostate = test system: PC-3 prostate
RPMI-8226 leukemia = test system: RPMI-8226 leukemia
RXF 393 renal = test system: RXF 393 renal
SF-268 CNS = test system: SF-268 CNS
SF-295 CNS = test system: SF-295 CNS
SF-539 CNS = test system: SF-539 CNS
SK-MEL-2 melanoma = test system: SK-MEL-2 melanoma
SK-MEL-28 melanoma = test system: SK-MEL-28 melanoma
SK-MEL-5 melanoma = test system: SK-MEL-5 melanoma
SK-OV-3 ovarian = test system: SK-OV-3 ovarian
SN12C renal = test system: SN12C renal
SNB-19 CNS = test system: SNB-19 CNS
SNB-75 CNS = test system: SNB-75 CNS
SR leukemia = test system: SR leukemia
SW-620 colon = test system: SW-620 colon
T-47D breast = test system: T-47D breast
TK-10 renal = test system: TK-10 renal
U251 CNS = test system: U251 CNS
UACC-257 melanoma = test system: UACC-257 melanoma
UACC-62 melanoma = test system: UACC-62 melanoma

## C[C@@H](O)[C@H]1C(=O)N2C(C(=O)O)=C(SCCN=CN)C[C@H]12
786-0 renal
  GI50: 2980 nM
  TGI: 11000 nM
A498 renal
  GI50: 853 nM
  TGI: 2440 nM
ACHN renal
  GI50: 1470 nM
  TGI: 5800 nM
BT-549 breast
  GI50: 2330 nM
  TGI: 7600 nM
CAKI-1 renal
  GI50: 2130 nM
  TGI: 5390 nM
CCRF-CEM leukemia
  GI50: 1660 nM
  TGI: 5730 nM
COLO 205 colon
  GI50: 1380 nM
  TGI: 3220 nM
DU-145 prostate
  GI50: 2560 nM
  TGI: 11700 nM
EKVX NSCLC
  GI50: 1250 nM
  TGI: 8610 nM
HCC-2998 colon
  GI50: 1810 nM
  TGI: 3890 nM
HCT-116 colon
  GI50: 1430 nM
  TGI: 6040 nM
HCT-15 colon
  GI50: 2960 nM
  TGI: 11100 nM
HL-60(TB) leukemia
  GI50: 2450 nM
  TGI: 6150 nM
HOP-62 NSCLC
  GI50: 1850 nM
  TGI: 5820 nM
HOP-92 NSCLC
  GI50: 1800 nM
  TGI: 5200 nM
HS 578T breast
  GI50: 2690 nM
  TGI: 28300 nM
HT29 colon
  GI50: 3100 nM
  TGI: 18300 nM
IGROV1 ovarian
  GI50: 1470 nM
  TGI: 9060 nM
KM12 colon
  GI50: 1480 nM
  TGI: 11400 nM
LOX IMVI melanoma
  GI50: 1440 nM
  TGI: 3970 nM
M14 melanoma
  GI50: 1860 nM
  TGI: 3520 nM
MALME-3M melanoma
  GI50: 1690 nM
  TGI: 3330 nM
MCF7 breast
  GI50: 2890 nM
  TGI: 11200 nM
MDA-MB-231 breast
  GI50: 2160 nM
  TGI: 8040 nM
MDA-MB-435
  GI50: 2380 nM
  TGI: 6010 nM
MOLT-4 leukemia
  GI50: 2320 nM
  TGI: 6260 nM
NCI-H226 lung
  GI50: 1550 nM
  TGI: 3520 nM
NCI-H23 lung
  GI50: 1810 nM
  TGI: 4780 nM
NCI-H460 lung
  GI50: 1580 nM
  TGI: 5730 nM
NCI-H522 lung
  GI50: 1580 nM
  TGI: 4120 nM
NCI/ADR-RES ovarian
  GI50: 1850 nM
  TGI: 6220 nM
OVCAR-3 ovarian
  GI50: 2950 nM
  TGI: 84100 nM
OVCAR-4 ovarian
  GI50: 2210 nM
  TGI: 6410 nM
OVCAR-5 ovarian
  GI50: 2910 nM
  TGI: 9440 nM
OVCAR-8 ovarian
  GI50: 1580 nM
  TGI: 32500 nM
PC-3 prostate
  GI50: 2230 nM
  TGI: 7270 nM
RPMI-8226 leukemia
  GI50: 1900 nM
  TGI: 6710 nM
RXF 393 renal
  GI50: 1550 nM
  TGI: 3580 nM
SF-268 CNS
  GI50: 1730 nM
  TGI: 5360 nM
SF-295 CNS
  GI50: 2670 nM
  TGI: 7500 nM
SF-539 CNS
  GI50: 2250 nM
  TGI: 6350 nM
SK-MEL-2 melanoma
  GI50: 2540 nM
  TGI: 7700 nM
SK-MEL-28 melanoma
  GI50: 1860 nM
  TGI: 3690 nM
SK-MEL-5 melanoma
  GI50: 1560 nM
  TGI: 2930 nM
SK-OV-3 ovarian
  GI50: 1380 nM
  TGI: 15800 nM
SN12C renal
  GI50: 971 nM
  TGI: 9470 nM
SNB-19 CNS
  GI50: 2190 nM
  TGI: 8490 nM
SNB-75 CNS
  GI50: 2120 nM
  TGI: 5100 nM
SR leukemia
  GI50: 1560 nM
  TGI: 4940 nM
SW-620 colon
  GI50: 744 nM
  TGI: 10400 nM
T-47D breast
  GI50: 2650 nM
  TGI: 9340 nM
TK-10 renal
  GI50: 4330 nM
  TGI: > 100000 nM
U251 CNS
  GI50: 2340 nM
  TGI: 10900 nM
UACC-257 melanoma
  GI50: 1800 nM
  TGI: 3780 nM
UACC-62 melanoma
  GI50: 1720 nM
  TGI: 3330 nM

From PubChem BioAssay (NCI)
